# Earlier results as cited in US5849733A, “2-thio or 2-oxo flavopiridol analogs” (Bristol-Myers Squibb Co., priority 1997, dated 1998).
# System: apoptosis
# Conditions: J. Cell Sci., 108, 2897 (1995)
structure (smiles),measurement,value
Cn1cnc2c(NCc3ccccc3)nc(NCCO)nc21 [olomucine],synergy with known cytotoxic agents in inducing apoptosis,act synergistically with known cytotoxic agents in inducing apoptosis
